Results as given in patent US20250289827A1, “MORPHIC FORMS OF A MUTANT BRAF DEGRADER AND METHODS OF MANUFACTURE THEREOF” (C4 THERAPEUTICS, INC., priority 2022, published 2025).
Values after ≈ are worked out from the molar mass of the structure shown. Values joined by “and” are separate entries in the source; they are usually repeats but may differ in a detail not shown here. Equal values may be shown once.

Key:
BRAF^V600E = BRAF^V600E (Homo sapiens, UniProt P15056, V600E); test: BRAF V600E degradation in A375 cells; assay type: cell-based; settings: 24 hr
[1] = Solubility in spray drying solvent system; assay type: physicochemical; settings: 80:20 dichloromethane:methanol, organic solvent or mixture
From the text: The stability of the SDI was supported by XRPD and HPLC purity and assay data. The secondary drying parameters were established to ensure adequate SDI stability during drying and that the ICH limits for residual dichloromethane and methanol can be met. Through a feasibility batch and an engineering batch, an SDI manufacturing process is established.

[2] = Compression simulation experiments; assay type: physicochemical; settings: for Comments: color / Comments: crystallinity / XRPD: compressed 5 minutes
Description: About 20 mg of Compound 1 Form B was compressed for 5 minutes under 2 MPa and 10 MPa with a hydraulic press. Potential form change and degree of crystallinity were evaluated by XRPD.

[3] = Dry grinding simulation experiments; assay type: physicochemical
Description: About 20 mg of Compound 1 Form B was ground manually with a mortar and a pestle for 1, 2 and 5 min. Potential form change, and degree of crystallinity were evaluated by XRPD.

[4] = Solubility in aqueous pH buffers and bio-relevant fluids at 37° C.; assay type: physicochemical; settings: for Solubility 2 h / Solubility 24 h: LOQ: 1.5 μg/mL; for solubility at 2 h / solubility at 24 h: thermodynamic from solid
Description: Solubility of the Form B and sodium salt Form F was measured in 7 aqueous pH buffers and bio-relevant fluids including pH 1.2 HCl solution (0.2N), pH 4.5 acetate buffer (50 mM), pH 6.8 phosphate buffer (50 mM), pH 2.0 SGF, pH 6.5 FaSSIF-v1, pH 5.0 FeSSIF-v1 and water at 37° C. for 2 h and 24 h, respectively.
Accurate 20 mg of the Form B was weighed into a 20 mL glass vial. Then, 10 mL of solubility medium was added. The sodium salt Form F amount used was equivalent to 20 mg anhydrous form. Obtained suspensions were stirred at 37° C. at 400 rpm and sampled at 2 hours and at 24 hours, respectively. The samples were centrifuged at 37° C. at 4,000 rpm for 4 min. Supernatants were analyzed by HPLC and pH meter for solubility and pH value, respectively. Residual solids (wet cakes) from the 24 hours samples were also characterized by XRPD to determine physical form.

[5] = Stability study for Compound 1 Form B (storage conditions); assay type: physicochemical
[6] = Crystallization by heat-cool DSC; assay type: physicochemical; settings: for Thermal events: Melting Tonset / Thermal events: enthalpy: heated to 185° C.; for Thermal events: Delta Cp / Thermal events: Tg: reheated to 250° C.
From the text: Polymorphic behavior of Compound 1 Form A was investigated by two different heat-cool DSC cycles. A Tzero pan and a Tzero hermetic lid with a pin hole were used for this experiment. No new crystalline form was obtained by heat-cool DSC.

[7] = Salt screening by slurry equilibration; assay type: physicochemical
Description: About 30 mg of Compound 1 Form A and 0.5 or 1 equivalent of base were added into a solvent in a 2 mL glass vial. […] Obtained mixtures were stirred at 25° C. for at least 48 hours.
Obtained suspensions were filtered through a 0.45 μm nylon membrane filter by centrifugation at 14,000 rpm. After being dried at 25° C. under vacuum for 2 h, solid parts were analyzed by XRPD.

[8] = pH 4.5 acetate buffer (50 mM), 37° C.
[9] = pH 6.8 phosphate buffer (50 mM), 37° C.
[10] = simulated gastric fluid, SGF, pH 2.0, 37° C.
[11] = simulated gastric fluid, pH 1.2 HCl solution (0.2N), 37° C.
[12] = 25° C. ± 2° C./60% RH ± 5% RH, 3 M
[13] = 25° C. ± 2° C./60% RH ± 5% RH, 6 M
[14] = 40° C. ± 2° C./75% RH ± 5% RH, 3 M
[15] = 40° C. ± 2° C./75% RH ± 5% RH, 6 M
[16] = Cycle 1 (cooling at 20° C./min)

Chain of BRAF^V600E (P15056 whole entry V600E): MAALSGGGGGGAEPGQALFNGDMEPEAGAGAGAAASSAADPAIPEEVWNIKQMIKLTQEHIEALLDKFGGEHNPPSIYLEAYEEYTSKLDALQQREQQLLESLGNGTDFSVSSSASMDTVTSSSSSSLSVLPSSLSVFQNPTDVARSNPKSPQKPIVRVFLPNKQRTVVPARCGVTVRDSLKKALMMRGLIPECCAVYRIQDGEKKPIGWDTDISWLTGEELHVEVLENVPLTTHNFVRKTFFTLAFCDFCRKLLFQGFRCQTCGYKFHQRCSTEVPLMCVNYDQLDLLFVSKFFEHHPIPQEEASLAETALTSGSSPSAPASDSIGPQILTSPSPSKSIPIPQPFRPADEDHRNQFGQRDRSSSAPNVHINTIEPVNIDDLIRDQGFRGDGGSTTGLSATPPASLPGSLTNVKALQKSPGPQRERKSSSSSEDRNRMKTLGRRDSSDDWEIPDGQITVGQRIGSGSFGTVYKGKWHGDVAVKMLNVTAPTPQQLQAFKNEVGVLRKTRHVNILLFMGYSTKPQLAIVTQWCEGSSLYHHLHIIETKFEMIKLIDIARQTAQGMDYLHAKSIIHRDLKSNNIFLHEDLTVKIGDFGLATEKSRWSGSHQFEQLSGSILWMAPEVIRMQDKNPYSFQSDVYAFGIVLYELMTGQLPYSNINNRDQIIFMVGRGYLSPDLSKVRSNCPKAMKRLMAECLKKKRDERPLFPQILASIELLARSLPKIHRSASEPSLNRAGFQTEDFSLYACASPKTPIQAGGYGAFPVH

## CCN(C)S(=O)(=O)Nc1ccc(F)c(Oc2ccc3ncn([C@H]4COC5(CCN(C(=O)CC6(O)CCN(c7cc8c(cc7F)c(N7CCC(=O)NC7=O)nn8C)CC6)CC5)C4)c(=O)c3c2)c1C#N [Compound 1, (3R)-3-[6-[2-cyano-3-[[ethyl(methyl)sulfamoyl]amino]-6-fluorophenoxy]-4-oxoquinazolin-3-yl]-8-[2-[1-[3-(2,4-dioxo-1,3-diazinan-1-yl)-5-fluoro-1-methylindazol-6-yl]-4-hydroxypiperidin-4-yl]acetyl]-1-oxa-8-azaspiro[4.5]decane]
BRAF^V600E
  BRAF protein degraded: 74%
  DC50: 14 nM
[1]
  solubility: > 100000 µg/mL

## CCN(C)S(=O)(=O)Nc1ccc(F)c(Oc2ccc3ncn([C@H]4COC5(CCN(C(=O)CC6(O)CCN(c7cc8c(cc7F)c(N7CCC(=O)NC7=O)nn8C)CC6)CC5)C4)c(=O)c3c2)c1C#N [Compound 1 Form B]
[2]; 2 MPa and 10 MPa
  Morphic form stability under compression: excellent morphic form stability
[2]; 2 MPa
  Comments: color: Slight discoloration.
  Comments: crystallinity: Slight decrease in crystallinity;
  XRPD: Form B
[2]; 10 MPa
  Comments: color: Slight discoloration.
  Comments: crystallinity: Slight decrease in crystallinity;
  XRPD: Form B
[3]
  Morphic form stability under dry grinding: excellent morphic form stability
[3]; grinding time 1 min
  Comments: Slight decrease in crystallinity.
  XRPD: Form B
[3]; grinding time 2 min
  Comments: Slight decrease in crystallinity.
  XRPD: Form B
[3]; grinding time 5 min
  Comments: Slight decrease in crystallinity.
  XRPD: Form B
[4]; FaSSIF-v1, pH 6.5, 37° C.
  pH of supernatant 24 h: pH = 6.5
  Solubility 2 h: <LOQ
  Solubility 24 h: <LOQ
[4]; FeSSIF-v1, pH 5.0, 37° C.
  pH of supernatant 24 h: (pH = 5.0)
  solubility at 2 h: 4.8 µg/mL (≈ 5.01 µM)
  solubility at 24 h: 6.7 µg/mL (≈ 6.99 µM)
[4]; SGF, pH 2.0, 37° C.
  pH of supernatant 24 h: (pH = 2.1)
[4]; Water, 37° C.
  pH of supernatant 24 h: (pH = 7.0)
  Solubility 2 h: <LOQ
  solubility at 24 h: 4.6 µg/mL (≈ 4.8 µM)
[4]; aqueous media
  pH range of morphic form stability in aqueous media: 1.2 to 7.0
[4]; aqueous media, 37° C.
  pH dependence of solubility: pH dependent solubility
[4]; pH 1.2 HCl solution (0.2N), 37° C.
  pH of supernatant 24 h: (pH = 0.9)
[4]; [8]
  pH of supernatant 24 h: (pH = 4.5)
  Solubility 2 h: <LOQ
  Solubility 24 h: <LOQ
[4]; [9]
  pH of supernatant 24 h: (pH = 6.8)
  Solubility 2 h: <LOQ
  Solubility 24 h: <LOQ
[4]; residual solids, 24 hours, XRPD
  Form change after solubility test: no form change
[4]; [10]
  solubility at 2 h: 3.8 µg/mL (≈ 3.97 µM)
  solubility at 24 h: 5.2 µg/mL (≈ 5.43 µM)
[4]; [11]
  solubility at 2 h: 11.7 µg/mL (≈ 12.2 µM)
  solubility at 24 h: 28 µg/mL (≈ 29.2 µM)
[5]; 5 ± 3° C., 6 M
  Appearance: white solid
  Assay by UPLC (% w/w): 97.7% w/w
  Chiral purity by HPLC (% area): 99.9% area
  Purity by UPLC (% area): 99.0% area
  Related Substances, UPLC (% area), Total Impurities: 1.0% area
  Water Content by KF (% w/w): 1.2% w/w
  XRPD: Form B
[5]; 5±3° C., 25° C./60% RH, 40° C./75% RH
  Water content trend: increasing trend
[5]; 6M, 5±3° C., 25° C./60% RH, 40° C./75% RH
  Stability study outcome (appearance, purity, assay, related substance, chiral purity, water content, XRPD): meet the acceptance criteria
[5]; [12]
  Assay by UPLC (% w/w): 97.2% w/w
  Chiral purity by HPLC (% area): 99.9% area
  Purity by UPLC (% area): 98.9 % area
  Related Substances, UPLC (% area), Total Impurities: 1.1% area
  Water Content by KF (% w/w): 0.7% w/w
  XRPD: Form B
[5]; [13]
  Assay by UPLC (% w/w): 97.8% w/w
  Chiral purity by HPLC (% area): 99.9% area
  Purity by UPLC (% area): 99.1 % area
  Related Substances, UPLC (% area), Total Impurities: 0.90% area
  Water Content by KF (% w/w): 0.9% w/w
  XRPD: Form B
[5]; [14]
  Assay by UPLC (% w/w): 92.2% w/w
  Chiral purity by HPLC (% area): 99.9% area
  Purity by UPLC (% area): 92.2% area
  Related Substances, UPLC (% area), Total Impurities: 1.2% area
  Water Content by KF (% w/w): 0.9 % w/w
  XRPD: Form B
[5]; [15]
  Assay by UPLC (% w/w): 92.5% w/w
  Chiral purity by HPLC (% area): 99.9% area
  Purity by UPLC (% area): 92.5% area
  Related Substances, UPLC (% area), Total Impurities: 1.1% area
  Water Content by KF (% w/w): 1.0 % w/w
  XRPD: Form B
[5]; Initial
  Appearance: white solid
  Assay by UPLC (% w/w): 99.4% w/w and 97.3% w/w
  Chiral purity by HPLC (% area): 99.8% area
  Purity by UPLC (% area): 98.9% area and 97.3% area
  Related Substances, UPLC (% area), Total Impurities: 1.1% area
  Water Content by KF (% w/w): 0.4% w/w
  XRPD: Form B

## CCN(C)S(=O)(=O)Nc1ccc(F)c(Oc2ccc3ncn([C@H]4COC5(CCN(C(=O)CC6(O)CCN(c7cc8c(cc7F)c(N7CCC(=O)NC7=O)nn8C)CC6)CC5)C4)c(=O)c3c2)c1C#N [Compound 1 Form A]
[6]; [16]
  Thermal events: Melting Tonset: Tonset 167.7° C., enthalpy about
  Thermal events: enthalpy: ~16 J/g
  Thermal events: Delta Cp: Delta Cp 0.3 J(g. ° C.)
  Thermal events: Tg: Heated to 250° C.: Tg 149.8° C.,
[6]; Cycle 2 (cooling at 2° C./min)
  Thermal events: Melting Tonset: Tonset 167.7° C., enthalpy about
  Thermal events: enthalpy: ~17 J/g
  Thermal events: Delta Cp: Delta Cp 0.2 J(g. ° C.)
  Thermal events: Tg: Heated to 250° C.: Tg 145.9° C.,
[7]; Ca(OH)2 (0.5 equiv.), Acetone, 5% water
  Slurry equilibration result (XRPD): Sticky material
[7]; Ca(OH)2 (0.5 equiv.), Acetonitrile, 5% water
  Slurry equilibration result (XRPD): Sticky material
[7]; Choline (1 equiv.), Acetone
  Slurry equilibration result (XRPD): Sticky material
[7]; Choline (1 equiv.), Acetonitrile
  Slurry equilibration result (XRPD): Sticky material
[7]; Choline (1 equiv.), Methanol
  Slurry equilibration result (XRPD): Clear solution
[7]; Erbumine (1 equiv.), Methanol
  Slurry equilibration result (XRPD): Few solids
[7]; Free form only, Acetone
  Slurry equilibration result (XRPD): Form B
[7]; Free form only, Acetonitrile
  Slurry equilibration result (XRPD): Form B
[7]; Methylglucamine (1 equiv.), Methanol
  Slurry equilibration result (XRPD): Sticky material
[7]; Mg(OH)2 (0.5 equiv.), Acetone, 5% water
  Slurry equilibration result (XRPD): Few solids
[7]; Mg(OH)2 (0.5 equiv.), Acetonitrile, 5% water
  Slurry equilibration result (XRPD): Form B
[7]; NH3 (1 equiv.), Acetone
  Slurry equilibration result (XRPD): Hazy suspension
[7]; NH3 (1 equiv.), Acetonitrile
  Slurry equilibration result (XRPD): Form I*
[7]; TRIS (1 equiv.), Methanol
  Slurry equilibration result (XRPD): Few solids
